Laboratory results as given in patent publication US20100267743A1, “3-(PHENOXYPYRROLIDIN-3-YL-METHYL)HETEROARYL, 3-(PHENYLPYRROLIDIN-3-YLMETHOXY)HETEROARYL, AND 3-(HETEROARYLPYRROLIDIN-3-YLMETHOXY)HETEROARYL COMPOUNDS” (priority 2009, published 2010).

Experiments:
SERT = SERT (Homo sapiens, UniProt P31645); assay: hSERT radioligand binding assay (3H-citalopram); design: expressed in transfected cells; host or cells: HEK-293; conditions: hSERT membranes (HEK-293), 1.0 nM 3H-citalopram; for Ki: read-out: SERT pKi (converted)
SERT, sequence (P31645 whole entry): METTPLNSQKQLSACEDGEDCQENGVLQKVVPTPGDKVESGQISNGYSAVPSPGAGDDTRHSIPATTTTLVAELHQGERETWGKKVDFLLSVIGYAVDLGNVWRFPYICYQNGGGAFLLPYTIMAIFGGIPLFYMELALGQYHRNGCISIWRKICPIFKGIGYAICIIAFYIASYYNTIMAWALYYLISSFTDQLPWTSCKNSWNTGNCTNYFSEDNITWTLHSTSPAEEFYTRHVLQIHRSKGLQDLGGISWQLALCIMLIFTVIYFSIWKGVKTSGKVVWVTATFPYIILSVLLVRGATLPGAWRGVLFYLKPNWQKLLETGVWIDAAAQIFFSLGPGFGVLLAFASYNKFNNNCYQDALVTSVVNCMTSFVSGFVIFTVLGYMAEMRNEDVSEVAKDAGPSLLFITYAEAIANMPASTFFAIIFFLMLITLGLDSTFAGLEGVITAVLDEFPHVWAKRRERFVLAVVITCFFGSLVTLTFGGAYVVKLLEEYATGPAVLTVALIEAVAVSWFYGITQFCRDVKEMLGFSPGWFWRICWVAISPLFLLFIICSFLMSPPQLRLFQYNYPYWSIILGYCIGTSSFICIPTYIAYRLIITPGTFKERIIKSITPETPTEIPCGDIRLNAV
Outline: (§1)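 Membranes came from HEK-293 cells stably expressing hSERT (0.5 μg protein) or hNET (1 μg), with 3H-citalopram or 3H-nisoxetine respectively. Incubation was 60 min at 22° C in Tris buffer with 120 mM NaCl and 5 mM KCl, pH 7.4, followed by filtration and scintillation counting. pKi was derived by Cheng-Prusoff from IC50 and saturation-derived Kd.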

NET = NET (Homo sapiens, UniProt P23975); assay: hNET radioligand binding assay (3H-nisoxetine); design: expressed in transfected cells; host or cells: HEK-293; conditions: hNET membranes (HEK-293), 1.0 nM 3H-nisoxetine; for Ki: read-out: NET pKi (converted)
NET, sequence (P23975 whole entry): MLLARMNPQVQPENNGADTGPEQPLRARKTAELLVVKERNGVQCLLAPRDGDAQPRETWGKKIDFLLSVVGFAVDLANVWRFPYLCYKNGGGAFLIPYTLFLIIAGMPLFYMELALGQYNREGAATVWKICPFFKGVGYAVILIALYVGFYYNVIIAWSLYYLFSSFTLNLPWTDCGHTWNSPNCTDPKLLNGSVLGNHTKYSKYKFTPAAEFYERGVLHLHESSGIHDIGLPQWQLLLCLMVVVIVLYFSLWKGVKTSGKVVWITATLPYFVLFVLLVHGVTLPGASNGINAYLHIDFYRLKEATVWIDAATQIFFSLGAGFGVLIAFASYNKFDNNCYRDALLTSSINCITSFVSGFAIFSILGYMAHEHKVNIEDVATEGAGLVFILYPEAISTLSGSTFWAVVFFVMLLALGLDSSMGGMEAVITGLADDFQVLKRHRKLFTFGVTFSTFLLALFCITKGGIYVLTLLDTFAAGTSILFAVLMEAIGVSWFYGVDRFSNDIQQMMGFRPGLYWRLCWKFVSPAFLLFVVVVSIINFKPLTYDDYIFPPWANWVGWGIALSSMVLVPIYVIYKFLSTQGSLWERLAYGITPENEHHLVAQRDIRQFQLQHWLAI
Outline: as §1

Fc1cc(Cl)c(O[C@H](c2cncc(Cl)c2)[C@@H]2CCNC2)c(Cl)c1 [Example 2-26, 3-Chloro-5-[(R)-(2,6-dichloro-4-fluorophenoxy)-(S)-pyrrolidin-3-yl-methy1]-pyridine]
SERT pKi (SERT): ≧7.0 | NET pKi (NET): ≧5.0

Cc1cccnc1OC(c1ccccc1)C1CCNC1 (centres unmarked) [14-37]
SERT pKi (SERT): ≧5.0 | NET pKi (NET): ≧5.0

Brc1ccc(O[C@@H](c2ccccc2)[C@H]2CCNC2)nc1.O=C(O)C(F)(F)F [14-20]
SERT pKi (SERT): ≧7.0 | NET pKi (NET): ≧7.0

Clc1cccc(O[C@@H](c2ncco2)[C@H]2CCNC2)c1.O=C(O)C(F)(F)F [6-45]
SERT pKi (SERT): ≧5.0 | NET pKi (NET): ≧7.0

Cc1cc(Cl)ccc1O[C@@H](c1ccco1)[C@H]1CCNC1 [Example 8-2, (S)-3-[(R)-(4-Chloro-2-methylphenoxy)furan-2-yl-methyl]pyrrolidine]
Ki (SERT): ≤ 10 µM | Ki (NET): ≤ 10 µM

Clc1ccc(O[C@@H](c2ccccc2)C2CCNC2)c(Cl)n1 (some centres unmarked) [15-1]
Ki (SERT): ≤ 0.1 µM | Ki (NET): ≤ 0.1 µM

Fc1ccc(F)c(O[C@H](c2cncnc2)[C@H]2CCNC2)c1Cl [12-2]
Ki (SERT): ≤ 0.1 µM | Ki (NET): ≤ 10 µM

Fc1cc(Cl)c(OC(c2nccs2)C2CCNC2)c(Cl)c1 [Example 5-11, 2-[((S)-(2,6-Dichloro-4-fluorophenoxy)-((S)-pyrrolidin-3-yl-methyl]thiazole]
Ki (SERT): ≤ 0.1 µM | NET pKi (NET): ≧5.0

Cc1cccc(O[C@@H](c2ccccc2)[C@H]2CCNC2)n1.O=C(O)C(F)(F)F [14-11]
SERT pKi (SERT): ≧5.0 | NET pKi (NET): ≧5.0

Fc1cc(F)c(O[C@H](c2ccncc2)[C@H]2CCNC2)c(F)c1 [Example 3-2, 4-[(S)-(S)-Pyrrolidin-3-yl-(2,4,6-trifluorophenoxy)methyl]pyridine]
Ki (SERT): ≤ 0.1 µM | Ki (NET): ≤ 0.1 µM

Clc1ncccc1O[C@@H](c1ccccc1)[C@H]1CCNC1.O=C(O)C(F)(F)F [15-6]
SERT pKi (SERT): ≧7.0 | NET pKi (NET): ≧7.0

Fc1cc(Cl)ccc1O[C@H](c1nccs1)[C@H]1CCNC1 [Example 5-33]
SERT pKi (SERT): ≧7.0 | NET pKi (NET): ≧7.0

Cc1ccnc(OC(c2ccccc2)C2CCNC2)c1 (centres unmarked) [14-32]
SERT pKi (SERT): ≧7.0 | NET pKi (NET): ≧7.0

Cc1cnc(O[C@@H](c2ccccc2)[C@H]2CCNC2)c(Br)c1.O=C(O)C(F)(F)F [14-31]
SERT pKi (SERT): ≧7.0 | NET pKi (NET): ≧7.0

Fc1cc(F)c(O[C@@H](c2cccnc2)[C@H]2CCNC2)c(F)c1 [Example 2-68, 3-[(R)-(S)-Pyrrolidin-3-yl-(2,4,6-trifluorophenoxy)methyl]pyridine]
Ki (SERT): ≤ 10 µM | Ki (NET): ≤ 10 µM

Fc1cc(F)c(Cl)c(O[C@@H](c2cnccn2)[C@H]2CCNC2)c1Cl.O=C(O)C(F)(F)F [10-1]
SERT pKi (SERT): ≧7.0 | NET pKi (NET): ≧7.0

Cc1cc(Cl)c(OC(c2nccs2)C2CCNC2)c(Cl)c1.O=C(O)C(F)(F)F (mixture of isomers) [Example 5-12, 2-[((S)-(2,6-Dichloro-4-methylphenoxy)-pyrrolidin-3-yl-methyl]thiazole]
SERT pKi (SERT): ≧7.0 | NET pKi (NET): ≧5.0

Fc1cnc(O[C@H](c2ccccc2)[C@@H]2CCNC2)c(F)c1.O=C(O)C(F)(F)F [14-16]
SERT pKi (SERT): ≧7.0 | NET pKi (NET): ≧7.0

Clc1cc(Cl)c(O[C@@H](c2ncco2)[C@H]2CCNC2)cc1Cl [6-1]
Ki (SERT): ≤ 0.1 µM | Ki (NET): ≤ 0.1 µM

COc1cc(Cl)c(F)cc1O[C@@H](c1ncco1)[C@H]1CCNC1.O=C(O)C(F)(F)F [6-40]
SERT pKi (SERT): ≧7.0 | NET pKi (NET): ≧7.0

FC(F)(F)COc1ncccc1O[C@@H](c1ccccc1)[C@H]1CCNC1.O=C(O)C(F)(F)F [15-11]
SERT pKi (SERT): ≧7.0 | NET pKi (NET): ≧7.0

Clc1cc(Cl)cc(OC(c2ccoc2)C2CCNC2)c1 [Example 9-1, (S)-3-[(R)-(3,5-Dichlorophenoxy)-furan-3-yl-methyl]pyrrolidione]
Ki (SERT): ≤ 0.1 µM | Ki (NET): ≤ 0.1 µM

Cc1ccc(O[C@@H](c2ccccc2)[C@H]2CCNC2)nc1.O=C(O)C(F)(F)F [14-30]
SERT pKi (SERT): ≧5.0 | NET pKi (NET): ≧7.0

Clc1cc(Cl)cc(O[C@H](c2cncc(Cl)c2)[C@H]2CCNC2)c1 [Example 2-16, 3-Chloro-5-[(S)-(3,5-dichlorophenoxy)-(S)-pyrrolidin-3-yl-methyl]pyridine]
Ki (SERT): ≤ 0.1 µM | Ki (NET): ≤ 0.1 µM

CCOc1ccccc1O[C@@H](c1ncco1)[C@H]1CCNC1.O=C(O)C(F)(F)F [6-38]
SERT pKi (SERT): ≧5.0 | NET pKi (NET): ≧7.0

Fc1ccc(O[C@H](c2cccnc2)[C@H]2CCNC2)c(F)c1 [Example 2-71, 3-[(S)-(2,4-Difluorophenoxy)-(S)-pyrrolidin-3-yl-methyl]pyridine]
Ki (SERT): ≤ 0.1 µM | Ki (NET): ≤ 0.1 µM

Fc1cc(F)c(OC(c2nccs2)C2CCNC2)c(F)c1 [Example 5-7, 2-[((S)-((S)-Pyrrolidin-3-yl-(2,4,6-trifluorophenoxy)methyl]thiazole]
Ki (SERT): ≤ 0.1 µM | Ki (NET): ≤ 0.1 µM

Fc1ccc(O[C@@H](c2ccccc2)C2CCNC2)c2ccccc12 (some centres unmarked) [21-9]
Ki (SERT): ≤ 0.1 µM | Ki (NET): ≤ 0.1 µM

Clc1ccccc1O[C@@H](c1ncco1)[C@H]1CCNC1 [6-19]
SERT pKi (SERT): ≧5.0 | NET pKi (NET): ≧7.0

Clc1ccc(O[C@H](c2ccccc2)[C@@H]2CCNC2)nc1.O=C(O)C(F)(F)F [14-27]
SERT pKi (SERT): ≧7.0 | NET pKi (NET): ≧7.0

c1ccc(C(Oc2ccccn2)C2CCNC2)cc1 (centres unmarked) [14-40]
Ki (SERT): ≤ 10 µM | Ki (NET): ≤ 0.1 µM

Fc1ccc(F)c(O[C@@H](c2cnccn2)[C@H]2CCNC2)c1Cl.O=C(O)C(F)(F)F [10-3]
SERT pKi (SERT): ≧5.0 | NET pKi (NET): ≧7.0

c1ccc(C(Oc2cccnc2)C2CCNC2)cc1 (centres unmarked) [15-32]
Ki (SERT): ≤ 0.1 µM | Ki (NET): ≤ 10 µM

COC(=O)c1cc(Cl)ccc1O[C@@H](c1ncco1)[C@H]1CCNC1.O=C(O)C(F)(F)F [6-29]
SERT pKi (SERT): ≧7.0 | NET pKi (NET): ≧7.0

COc1ncccc1O[C@@H](c1ccccc1)[C@H]1CCNC1.O=C(O)C(F)(F)F [15-17]
SERT pKi (SERT): ≧7.0 | NET pKi (NET): ≧7.0

COc1cccc(C(Oc2cccc3ccccc23)C2CCNC2)c1 (centres unmarked) [21-6]
Ki (SERT): ≤ 0.1 µM | Ki (NET): ≤ 0.1 µM

Fc1cc(Cl)ccc1O[C@@H](c1ncco1)[C@H]1CCNC1.O=C(O)C(F)(F)F [6-31]
SERT pKi (SERT): ≧7.0 | NET pKi (NET): ≧7.0

Cc1cc(Cl)ccc1O[C@@H](c1nccs1)[C@H]1CCNC1 [Example 5-22]
SERT pKi (SERT): ≧7.0 | NET pKi (NET): ≧7.0

FC(F)(F)c1cccnc1O[C@H](c1ccccc1)[C@@H]1CCNC1.O=C(O)C(F)(F)F [14-33]
SERT pKi (SERT): ≧5.0 | NET pKi (NET): ≧5.0

Fc1cc(Cl)cc(F)c1OC(c1cncc(Cl)c1)C1CCNC1 [Example 2-25, 3-Chloro-5-[(R)-(4-chloro-2,6-difluorophenoxy)-(S)-pyrrolidin-3-yl-methy1]-pyridine]
Ki (SERT): ≤ 0.1 µM | Ki (NET): ≤ 0.1 µM

Cc1cc(Cl)c(OC(c2nccs2)C2CCNC2)c(Cl)c1 [Example 5-13, 2-[(R)-(2,6-Dichloro-4-methylphenoxy)-((S)-pyrrolidin-3-yl-methyl]thiazole]
Ki (SERT): ≤ 10 µM | Ki (NET): ≤ 10 µM

COc1ccccc1OC(c1cccnc1)[C@H]1CCNC1 (stereo partly drawn) [Example 2-81, 3-[(S)-(2-Methoxyphenoxy)-pyrrolidin-3-yl-methyl]pyridine]
Ki (SERT): ≤ 10 µM | Ki (NET): ≤ 0.1 µM

Clc1cccc(Cl)c1O[C@@H](c1ncco1)[C@H]1CCNC1.O=C(O)C(F)(F)F [6-8]
SERT pKi (SERT): ≧7.0 | NET pKi (NET): ≧7.0

Fc1ncccc1O[C@@H](c1ccccc1)[C@H]1CCNC1.O=C(O)C(F)(F)F [15-8]
SERT pKi (SERT): ≧7.0 | NET pKi (NET): ≧7.0

Clc1cc(O[C@@H](c2ccccc2)[C@H]2CCNC2)cc(Cl)n1.O=C(O)C(F)(F)F [16-2]
SERT pKi (SERT): ≧7.0 | NET pKi (NET): ≧5.0

Cc1cc(Cl)cc(Cl)c1OC(c1cncc(Cl)c1)C1CCNC1 [Example 2-30, 3-Chloro-5-[(R)-(2,4-dichloro-6-methylphenoxy)-(S)-pyrrolidin-3-yl-methy1]-pyridine]
Ki (SERT): ≤ 0.1 µM | Ki (NET): ≤ 10 µM

Cc1cc(Cl)ccc1O[C@H](c1cncc(F)c1)[C@H]1CCNC1 [Example 2-61, 3-[(S)-(4-Chloro-2-methylphenoxy)-(S)-pyrrolidin-3-yl-methyl]-5-fluoropyridine]
Ki (SERT): ≤ 0.1 µM | Ki (NET): ≤ 10 µM

Fc1cc(Cl)cc(F)c1OC(c1ncco1)C1CCNC1 (centres unmarked) [6-13]
SERT pKi (SERT): ≧7.0 | NET pKi (NET): ≧7.0

Cc1ccccc1O[C@@H](c1ncco1)[C@H]1CCNC1 [6-33]
Ki (SERT): ≤ 10 µM | Ki (NET): ≤ 0.1 µM

Clc1ccc(O[C@@H](c2ccccc2)[C@H]2CCNC2)cn1.O=C(O)C(F)(F)F [15-24]
SERT pKi (SERT): ≧7.0 | NET pKi (NET): ≧5.0

COc1cc(Cl)ccc1O[C@@H](c1cncc(F)c1)[C@H]1CCNC1 [Example 1]
Ki (SERT): ≤ 0.1 µM | Ki (NET): ≤ 0.1 µM

Fc1cncc(C(Oc2c(F)ccc(F)c2Cl)C2CCNC2)c1 [Example 2-50, 3-[(S)-(2-Chloro-3,6-difluorophenoxy)-(S)-pyrrolidin-3-yl-methy1]-5-fluoropyridine]
Ki (SERT): ≤ 0.1 µM | Ki (NET): ≤ 10 µM

Fc1cc(F)c(F)c(OC(c2nccs2)C2CCNC2)c1F [Example 5-4, 2-[((S)-((S)-Pyrrolidin-3-yl-(2,3,5,6-tetrafluorophenoxy)methyl]thiazole]
Ki (SERT): ≤ 10 µM | Ki (NET): ≤ 0.1 µM

Cc1cccc(C)c1O[C@@H](c1ncco1)[C@H]1CCNC1.O=C(O)C(F)(F)F [6-14]
SERT pKi (SERT): ≧7.0 | NET pKi (NET): ≧7.0

Clc1ncccc1O[C@@H](c1ccccc1)C1CCNC1 (some centres unmarked) [15-4]
Ki (SERT): ≤ 0.1 µM | Ki (NET): ≤ 0.1 µM
